Like-named read-outs stand apart in the source and are kept apart here.
Columns and labels:
[1] = buffer; for T1/2 prodrug: pH 7.3
[2] = system: WiDr cells (a colon carcinoma cell line) engineered for stable expression of stCPG2(Q)3; test: cells; type: cell-based; details: for IC50: read-out: IC50 stCPG2(Q)3
[3] = system: WiDr cells (a colon carcinoma cell line) engineered for stable expression of β-galactosidase (β-gal); test: cells; type: cell-based; details: read-out: IC50 LacZ
[4] = system: WiDr cells (a colon carcinoma cell line) engineered for stable expression of β-galactosidase (β-gal); details: cited from earlier work
[5] = system: WiDr cells (a colon carcinoma cell line) engineered for stable expression of stCPG2(Q)3; details: cited from earlier work
CPG2 = CPG2 (Pseudomonas sp., UniProt P06621); type: biochemical, Pseudomonas R16
CPG2, sequence (P06621 23-415): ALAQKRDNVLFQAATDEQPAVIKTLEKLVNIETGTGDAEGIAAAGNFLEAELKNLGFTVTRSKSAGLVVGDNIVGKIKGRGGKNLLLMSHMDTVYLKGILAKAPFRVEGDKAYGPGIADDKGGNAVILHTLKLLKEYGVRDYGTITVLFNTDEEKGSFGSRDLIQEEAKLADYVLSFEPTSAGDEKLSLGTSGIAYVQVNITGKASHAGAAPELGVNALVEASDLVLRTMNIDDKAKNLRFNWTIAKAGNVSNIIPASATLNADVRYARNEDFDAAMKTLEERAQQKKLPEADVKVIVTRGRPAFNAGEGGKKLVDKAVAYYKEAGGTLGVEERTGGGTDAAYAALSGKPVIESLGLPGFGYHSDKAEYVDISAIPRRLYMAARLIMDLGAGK

SMILES	T1/2 prodrug/T1/2 drug [1]	Degree of activation (fold) [2] [fold]	differentials in the WiDr cell lines compared with CMDA [2]	IC50 ([2]; Homo sapiens, WiDr) [µM]	IC50 ([3]; Homo sapiens, WiDr) [µM]	IC50 [4] [µM]	IC50 [5] [µM]	T1/2 prodrug [1] [min]	differential in the transfected WiDr cell line [2] [fold]	IC50 [2] [µM]	IC50 [3] [µM]	kcat (CPG2) [s⁻¹]
CN(C(=O)OCc1ccc(NC(=O)NC(CCC(=O)O)C(=O)O)cc1)c1ccc(N(CCI)CCI)cc1 [Compound P-1, 4-{N-[4′-bis(2″-iodoethyl)amino-phenyl]-N-methyl-carbamoyl-oxymethyl}-phenyl-carbamoyl-L-glutamic acid]	6.5	124.0	better than those of CMDA	1.5	185	–	–	–	–	–	–	–
CS(=O)(=O)OCCN(CCCl)c1ccc(C(=O)N[C@@H](CCC(=O)O)C(=O)O)cc1 [CMDA, N-{4-[(2-chloroethyl)(2-mesyloxyethyl)amino]benzoyl}-L-glutamic acid]	–	32.3	–	–	–	3230	100	–	–	–	–	–
O=C(O)CCC(NC(=O)Nc1ccc(COC(=O)Nc2ccccc2N(CCBr)CCBr)cc1)C(=O)O (centres unmarked) [CP-3]	3.5	24.9	–	–	–	–	–	3.0	25	4.7	118	–
O=C(O)CCC(NC(=O)Nc1ccc(COC(=O)Nc2ccccc2N(CCCl)CCCl)cc1)C(=O)O (centres unmarked) [CP-5]	13.9	4.7	–	–	–	–	–	107.5	–	4.5	21.1	2.92
O=C(O)CCC(NC(=O)Oc1ccc(COC(=O)Nc2ccc(N(CCCl)CCCl)cc2)cc1)C(=O)O (centres unmarked) [CP-13]	–	–	–	–	–	–	–	–	–	–	–	<10
CN(C(=O)OCc1ccc(OC(=O)NC(CCC(=O)O)C(=O)O)cc1)c1ccc(N(CCI)CCI)cc1 (centres unmarked) [CP-15]	7.7	8.3	–	–	–	–	–	4.6	–	2.6	21.5	–
CN(C(=O)OCc1ccc(OC(=O)NC(CCC(=O)O)C(=O)O)cc1)c1ccc(N(CCCl)CCCl)cc1 (centres unmarked) [CP-17]	20.6	11.5	–	–	–	–	–	173.6	–	1.7	19.6	4.32
O=C(O)CCC(NC(=O)Nc1ccc(COC(=O)Nc2ccc(N(CCI)CCI)cc2)cc1)C(=O)O (centres unmarked) [CP-2]	1.9	101.6	better than those of CMDA	–	–	–	–	0.97	–	1.8	180	–
CS(=O)(=O)OCCN(CCOS(C)(=O)=O)c1ccccc1NC(=O)OCc1ccc(OC(=O)NC(CCC(=O)O)C(=O)O)cc1 (centres unmarked) [CP-7]	–	5.2	–	–	–	–	–	10.8	–	40	208	–
O=C(O)CCC(NC(=O)Oc1ccc(COC(=O)Nc2ccccc2N(CCI)CCI)cc1)C(=O)O (centres unmarked) [CP-8]	–	3.9	–	–	–	–	–	2.1	–	19	73.3	–
O=C(O)CCC(NC(=O)Oc1ccc(COC(=O)Nc2ccc(N(CCBr)CCBr)cc2)cc1)C(=O)O (centres unmarked) [CP-11]	0.4	38.3	better than those of CMDA	–	–	–	–	0.9	–	2.6	99.7	–
CS(=O)(=O)OCCN(CCCl)c1ccccc1NC(=O)OCc1ccc(OC(=O)NC(CCC(=O)O)C(=O)O)cc1 (centres unmarked) [CP-14]	–	5.2	–	–	–	–	–	10.0	–	28.5	148	–
CN(C(=O)OCc1ccc(OC(=O)NC(CCC(=O)O)C(=O)O)cc1)c1ccc(N(CCBr)CCBr)cc1 (centres unmarked) [CP-16]	1.0	7.5	–	–	–	–	–	2.7	–	3.6	27.2	–
O=C(O)CCC(NC(=O)Oc1ccc(COC(=O)Nc2ccccc2N(CCCl)CCCl)cc1)C(=O)O (centres unmarked) [CP-12]	11.9	1.4	–	–	–	–	–	146.3	–	28.1	38.1	4.27
O=C(O)CCC(NC(=O)Oc1ccc(COC(=O)Nc2ccc(N(CCI)CCI)cc2)cc1)C(=O)O (centres unmarked) [CP-9]	2.0	42.5	better than those of CMDA	–	–	–	–	0.98	–	1.3	53.6	–
O=C(O)CCC(NC(=O)Nc1ccc(COC(=O)Nc2ccccc2N(CCI)CCI)cc1)C(=O)O (centres unmarked) [CP-1]	–	49.7	better than those of CMDA	–	–	–	–	2.7	50	3	149	–
O=C(O)CCC(NC(=O)Oc1ccc(COC(=O)Nc2ccccc2N(CCBr)CCBr)cc1)C(=O)O (centres unmarked) [CP-10]	3.5	1.9	–	–	–	–	–	3.47	–	95.2	183	–
CN(C(=O)OCc1ccc(NC(=O)NC(CCC(=O)O)C(=O)O)cc1)c1ccc(N(CCCl)CCCl)cc1 [Compound P-3, 4-{N-[4′-bis(2″-chloroethyl)amino-phenyl]-N-methyl-carbamoyl-oxymethyl}-phenyl-carbamoyl-L-glutamic acid]	20.9	15.9	–	2.5	39.7	–	–	–	–	–	–	5.50
CN(C(=O)OCc1ccc(NC(=O)NC(CCC(=O)O)C(=O)O)cc1)c1ccc(N(CCBr)CCBr)cc1 [Compound P-2, 4-{N-[4′-bis(2″-bromoethyl)amino-phenyl]-N-methyl-carbamoyl-oxymethyl}-phenyl-carbamoyl-L-glutamic acid]	1.0	81.4	better than those of CMDA	4.1	332	–	–	–	–	–	–	–
O=C(O)CCC(NC(=O)Nc1ccc(COC(=O)Nc2ccc(N(CCCl)CCCl)cc2)cc1)C(=O)O (centres unmarked) [CP-6]	–	–	–	–	–	–	–	–	–	–	–	10 to 50
O=C(O)CCC(NC(=O)Nc1ccc(COC(=O)Nc2ccc(N(CCBr)CCBr)cc2)cc1)C(=O)O (centres unmarked) [CP-4]	0.4	66.6	better than those of CMDA	–	–	–	–	0.85	–	3.1	205	–

Source: patent publication US7235585B2 (priority 2002, dated 2007)
